Results: patent US20230322805A1, “NOVEL PYRIMIDODIAZEPINE DERIVATIVES OR USES THEREOF” (SPARK BIOPHARMA, INC., priority 2020, published 2023)
Where two headings read alike, the source gives them in different places.

Experiments:
[1] = Blood-brain barrier penetration test in male ICR mice; assay type: in vivo, mouse; settings: for concentration at 0.5 h / concentration at 3 h: male, 5 mg/kg
Protocol: After intraperitoneal administration (5 mg/kg, 3.3 mL/kg) of the compound (SB1617, 5% DMSO/[…]) according to the present invention to CD-1 (ICR) male mice (7 weeks old, KOATECH, Korea), blood samples were collected using heparinized tubes at designated time points (0.5 and 3 hours) in the orbital venous plexus, mice were sacrificed, and brain tissues were harvested. Plasma and brain homogenate samples were analyzed with an LC-MS/MS analyzer (Agilent 1260, Agilent 6460). The proportion of the compound according to the invention (SB1617) in brain and plasma was calculated.
6-1. In order to evaluate the suitability of the compound (SB1617) according to this invention in vivo, pharmacokinetic properties and blood-brain barrier penetration properties were identified using male ICR mice according to the methods described in Examples 1-15 and 1-16.
In addition, as shown in FIG. 28 and Table 3, it was confirmed that at least 50% of SB1617 was detected in the brain compared to plasma.

[2] = system: tau (Tau5, phospho S199, T231) in BiFC-tau Venus HEK293 cells; assay: Immunoblot of total tau and phospho-tau in HEK293 BiFC-tau cells; assay type: cell-based, human
Protocol: Cells were collected and lysed in modified radioimmunoprecipitation assay(RIPA) buffer 50 mM Tris-HCl, pH 7.8, […], 1% NP-40, 0.5% deoxycholate, 5 mM NaF, 2 mM Na3VO4, and 1× Protease Inhibitor Cocktail(Roche). The concentration of total protein in each lysate was then determined using a whole cell assay and Pierce BCA Protein Assay Kit (ThermoFisher Scientific). Centrifugation was performed at 200 g for 10 minutes at 4° C. for measurement. Equal amounts of each lysate were fractionated by PAGE, transferred to a PVDF membrane (Bio-Rad), and blocked with 2% bovine serum albumin (BSA, MP Biomedicals) in Tris Buffered Saline supplemented with Tween20 (TBST, Sigma) for 1 hour at room temperature.
Membranes were probed with protein-specific antibodies overnight at 4° C. The following day, membranes were washed three times in TBST and incubated with 2% BSA in TBST for 1 hour at room temperature with anti-rabbit or anti-mouse horseradish peroxidase secondary antibodies (Cell Signaling Technology). After washing, membranes were exposed to detection reagents (GE Healthcare) and quantified via chemiluminescence (Bio-Rad). […]

Htt-Q74 = assay: Level of aggregation-prone mutant protein after treatment; assay type: cell-based; settings: SB1617 treatment
[3] = system: protein synthesis in SH-SY5Y cells; assay: Protein synthesis labelling with furomycin in SH-SY5Y cells; assay type: cell-based, human; settings: 10 μM SB1617, with thapsigargin
Protocol: 5-1. […] To assure this, SH-SY5Y cells were treated with 10 μM SB1617 for directed time, and then the newly synthesized protein was labeled with 10 μg/mL furomycin for 10 minutes and visualized by anti-furomycin antibody staining.

[4] = system: LC3-1 to LC3-II conversion (autophagy); assay: Immunoblot of LC3-1 to LC3-II conversion and p62 in HEK293 BiFC-tau cells; assay type: cell-based, human; settings: 5 μM SB1617, presence or absence of 500 nM TG, 6 hours

With `CN(Cc1ccc(Cl)cc1)c1ncnc2c1[C@@H]1OC[C@H](CN2)N1S(=O)(=O)c1ccc([N+](=O)[O-])cc1` [Compound 117] the Kp at 0.5 h ([1]; CD-1 (ICR), mouse, brain, ip, 0.5 h after I.P. 5 mg/kg, read-out: Brain/Plasma ratio) was 0.5 ± 0.14, the Kp at 3 h ([1]; CD-1 (ICR), mouse, brain, ip, 3 h after I.P. 5 mg/kg, read-out: Brain/Plasma ratio) was 0.66 ± 0.21 and the Kp ([1]; CD-1 (ICR), mouse, in vivo, ip, I.P. 5 mg/kg, read-out: SB1617 detected in the brain compared to plasma) was no less than 0.5. For the same molecule, the blood-brain barrier crossing ([1]; intraperitoneal injection) was “sufficient blood-brain barrier crossing”, the concentration at 0.5 h ([1]; CD-1 (ICR), mouse, in vivo, ip, 0.5 h after I.P. 5 mg/kg, read-out: Concentration, Brain tissue) was 421 ± 58.2 ng/mL and the concentration at 0.5 h ([1]; CD-1 (ICR), mouse, in vivo, ip, 0.5 h after I.P. 5 mg/kg, read-out: Concentration, Plasma) was 885 ± 187 ng/mL. The concentration at 3 h ([1]; CD-1 (ICR), mouse, in vivo, ip, 3 h after I.P. 5 mg/kg, read-out: Concentration, Brain tissue) was 55.9 ± 5 ng/mL, the concentration at 3 h ([1]; CD-1 (ICR), mouse, in vivo, ip, 3 h after I.P. 5 mg/kg, read-out: Concentration, Plasma) was 92.4 ± 29.8 ng/mL and the total tau level ([2]; 10 μM SB1617, 200 nM TG, pre-treated with 20 μg/mL cycloheximide, 8 hours) was “did not cause a significant change in tau level”. The “effect on reduction of total tau level” value ([2]; SB1617 and TG with autophagy inhibitors 3-methyladenine and bafilomycin A1) was “is reduced, but does not completely diminish”, the “total tau (Tau5) and phospho-tau (S199, T231) levels” value ([2]; with 80 nM thapsigargin for 20 hours) was “decreased all tau levels” and the “mutation level of Htt-Q74” value (Htt-Q74) was “downregulated”. The “inhibition of protein synthesis” value [3] was “enhanced and extended” and the “conversion from LC3-1 to LC3-II” value [4] was “conversion from light chain 3-1 (LC3-1) to LC3-II was confirmed”.
